Earlier results in patent US9603775B2, “Delamination resistant pharmaceutical glass containers containing active pharmaceutical ingredients” (Corning Incorporated, priority 2013, dated 2017).

How the values were obtained:
[1] = tested on: IL-12 and IL-23 mediated signaling and cytokine cascades; details: in vitro models

Compound: CC(C)C[C@H](NC(=O)[C@H](Cc1ccccc1)NC(=O)c1cnccn1)B(O)O [bortezomib, [(1R)-3-methyl-1-[[(2S)-1-oxo-3-phenyl-2-[(pyrazinylcarbonyl)amino]propyl]amino]butyl]boronic acid]
- effect on antigen presentation (26S proteasome): inhibited in a dose dependent manner

Compound: ustekinumab: human IgG1κ monoclonal antibody that binds the p40 subunit of IL-12 and IL-23 cytokines
- effect on IL-12 and IL-23 mediated signaling and cytokine cascades [1]: disrupt IL-12 and IL-23 mediated signaling and cytokine cascades
